Source: PMC3551932, “STK295900, a Dual Inhibitor of Topoisomerase 1 and 2, Induces G2 Arrest in the Absence of DNA Damage” (PLoS ONE, 2013)

Legend:
HeLa cells = test: Immunoblot of cell cycle and DNA damage checkpoint proteins; format: cell-based, human; conditions: 24 h, STK295900 1 or 5 µM, camptothecin 10 µM, etoposide 10 µM
Experimental: Cells were lysed with cold RIPA buffer (50 mM Tris-HCl pH 8.0, 150 mM NaCl, 1% NP-40, 0.5% sodium deoxycholate, 0.1% SDS) containing freshly added protease inhibitor, phosphatase inhibitor (SIGMA), 1 mM DTT, and 1 mM Na3VO4 on ice for 1 h. Whole cell lysates were centrifuged at 15,000 rpm for 20 min and then the supernatant was transferred into a new tube. An appropriate amount of cell lysate was subjected to SDS-PAGE. Then the resolved proteins were transferred onto a PVDF membrane (Bio-Rad) for immunoblot analyses with specific antibodies. The proteins were detected using chemiluminescence solution (Thermo Scientific, Rockford, IL).
(A) Flow cytometric analysis for cell cycle distribution. HeLa cells were treated with the indicated concentrations of STK295900 for 24 h. Treated cells were then stained with propidium iodide (PI) and processed for cell cycle analysis. The bar graph represents the mean percentage of each cell cycle phase ± SD from three independent experiments. * = p<0.05 versus the respective G1, S, or G2/M phase of DMSO-treated cells. (B) Mitotic index of STK295900. HeLa cells were treated with the indicated concentrations of STK295900 for 24 h. Cells were then stained with Hoechst 33342 and mitotic cells were counted. […] (C) Cell cycle related proteins expression. […] Treated cells were lysed and subjected to immunoblot analyses with antibodies against cyclin A, cyclin B1, phospho-Histone H3 (S10), and Histone H3. β-actin was used as a loading control.
(A) G2/M transition regulated proteins expression. […] GAPDH was used as a loading control. (B) DNA damage-checkpoint related proteins. […] Images were analyzed on a fluorescence microscope.

MCF7 cells = test: Cell growth inhibition assay, MCF7; format: cell-based, human; conditions: Homo sapiens, MCF7, 96 h, growth up to 4 days
Description: Human epitheloid cervical carcinoma HeLa cells, human breast adenocarcinoma MCF7 and MDA-MB-231cells, human hepatocellular carcinoma HepG2 cells, human colon adenocarcinoma HT-29 cells, and human colorectal carcinoma HCT-116 cells were purchased from ATCC® and maintained in DMEM medium. Human prostate carcinoma PC-3 cells (purchased from ATCC®), human gastric carcinoma SNU-484 and SNU-601(obtained from Korean Cell Line Bank (KCLB)), human leukemia K-562 and HL-60 cells (purchased from ATCC®), immortalized human prostate epithelial 267B1cells, and immortalized human embryonic lung fibroblast MRC5CV1 cells were maintained in RPMI 1640 medium whereas immortalized retinal pigment epithelial hTERT RPE-1 cells (purchased from ATCC®) were maintained in DMEM/F12 medium. All cell lines were cultured in media supplemented with 10% fetal bovine serum, 100 U/ml penicillin, and […] streptomycin at 37°C in a 5% CO2 incubator.
Cells were seeded at the appropriate amount (1–2×10^3 cells) in triplicate in 96-well plates for 24 h and then treated with various concentrations of STK295900. Cell growth was determined by using EZ-CyTox cell viability assay kit (Daeil Lab. Service, Seoul, Korea). Ten microliters of WST solution were added to the treated cells at 24, 48, 72, and 96 h. Cells were further incubated at 37°C for 2 h and the absorbance was measured at 450 nm.

## Nc1ccc(-c2nc3ccc(-c4ccc5nc(-c6ccc(N)cc6)[nH]c5c4)cc3[nH]2)cc1 [STK295900, 4,4′-(3H,3′H-5,5′-bibenzimidazole-2,2′-diyl)dianiline]
HeLa cells
  p53 and p21 levels: did not induce upregulation of p53 but marginally affected p21 level
  phosphorylation-dependent activation of ATM (S1981), ATR (S428), Chk1 (S345), and Chk2 (T68): no increase in phosphorylations of ATM, ATR, Chk1, and Chk1
HeLa cells; nocodazole 200 ng/ml
  Phosphorylation of Cdk1 at T161: dose-dependent increase
  Wee1 and Cdc25C levels: no change in Wee1 and Cdc25C levels
  cyclin A and cyclin B1 levels: accumulations of cyclin A and cyclin B1
  inhibitory phosphorylation of Cdk1 (T14 and Y15): dose-dependent increase
MCF7 cells; Table 1, MCF7, breast adenocarcinoma
  IC50: 60 nM
MCF7 cells; Table 2 comparison, MCF7
  IC50: 40 nM
